Legend:
[1] = Phase I (1b) cerebrospinal fluid (CSF) levels; format: in vivo; settings: human, day 10, 600 mg b.i.d. oral, 8 subjects, read-out: Cmax in cerebrospinal fluid (CSF), arithmetic mean
SNAP-25 = experiment: Phase IIa CSF pre-synaptic biomarker SNAP-25; format: in vivo, human
Excerpt: (§1) CSF samples were obtained at screening Visit and final Visit via lumbar puncture to determine levels of tau, p-tau, Aβ40, Aβ42 and AChE activity as an initial set of CSF biomarkers. Aliquots of CSF were made available for emerging CSF biomarker methods such as measurement of additional biomarkers including neurofilaments light chain, neurogranin, SNAP-25, synaptotagmin, YKL-40, TREM2, tau oligomers and for measurement of drug level in selected patients based on the time period between last dose of drug and CSF sampling (FIG. 25 and FIG. 58).
(§2) Baseline CSF samples are obtained prior to administration via lumbar puncture. These samples are used to determine levels of tau, p-tau, Aβ40, Aβ42, AChE, neurofilament light chain, SNAP-25, synaptotagmin-1, neurogranin, sTREM, and YKL-40. Aliquots of CSF are also made available for emerging CSF biomarker methods such as measurement of tau oligomers and for measurement of drug level in selected patients based on time period between last dose of the salt of Formula (II) and CSF sampling. […] Many of these biomarkers can also be measured in blood or plasma. The change in values over the time period from pre-treatment to post-treatment are of particular importance. […] Absolute levels at single time points of neurofilament light chain, SNAP-25, synaptotagmin-1, neurogranin, sTREM, and YKL-40 in CSF or blood or plasma are of less value given differences in assay techniques and wide variation in absolute levels within normal subjects and within and across AD subjects. In contrast, absolute levels of Aβ42 and 40 at baseline are useful biomarkers indicating the presence of amyloid pathology as low levels of Aβ42 and 40 at a given time point are consistent with amyloid pathology.

[2] = Aqueous solubility of the drug substance; format: physicochemical; settings: water
Procedure: Preparation of the clinical dosage form consists of a dry fill of the drug substance into gelatin capsules with no excipients. For the Phase II study, capsules with the salt of Formula (II)(200 mg or 400 mg, free base weight) are machine-filled and packaged in blister strips with aluminum foil backing, which are stored in cardboard boxes. Matching placebo capsules are also available in the same packaging.

p-tau = experiment: Phase IIa CSF p-tau; format: in vivo, human; settings: combined drug group
Excerpt: as §1
Baseline CSF samples are obtained prior to administration via lumbar puncture. These samples are used to determine levels of tau, p-tau, Aβ40, Aβ42, AChE, neurofilament light chain, SNAP-25, synaptotagmin-1, neurogranin, sTREM, and YKL-40. Aliquots of CSF are also made available for emerging CSF biomarker methods such as measurement of tau oligomers and for measurement of drug level in selected patients based on time period between last dose of the salt of Formula (II) and CSF sampling. […] Many of these biomarkers can also be measured in blood or plasma. The change in values over the time period from pre-treatment to post-treatment are of particular importance. […]

Aβ42, Aβ40 = experiment: Phase IIa CSF AD core biomarkers Aβ42 and Aβ40; format: in vivo, human
Excerpt: as §1, §2

CC[C@H](C)[C@H](N)C(=O)NCCN1CCOCC1 [LM11A-31-BHS, Tris[(2S,3S)-2-amino-3-methyl-N-(2-morpholinoethyl)pentanamide] tetra(monohydrogensulfate), monosulfate]
Cmax [1]: 56 ng/mL
CSF SNAP-25, drug dose analysis (SNAP-25; 200 and 400 mg doses, post hoc Dunn's test does not reach significance): significant main effect of drug dose
drug effect in slowing or inhibiting the SNAP-25 increase, younger (<72 years) versus older (>=72 years) (SNAP-25; annual percent change (APC), 6-month trial period): greater than that found in the older group
CSF SNAP-25 change in the drug group (SNAP-25; combined drug group, 6 months, drug effect p=0.01): no increase was detected
solubility [2]: > 30 mg/mL
CSF p-tau, drug versus placebo (p-tau): trend for the drug to inhibit the trend to rise in p-tau
CSF Ab 42 change in the drug group (Aβ42, Aβ40; combined drug group, 26 weeks, p=0.003): went down by a significant amount
CSF Ab 42, difference between placebo and drug (Aβ42, Aβ40; combined drug group, p=0.03): significant
effect on levels of Aβ42 and 40 (Aβ42, Aβ40; daily treatment, CSF): ability to lower levels of Aβ42 and 40
